Read-outs that look alike come from different tables or passages of the source.
Columns and labels:
[1] = Ether fuel testing (ULSD and hexadecane blends, neat ether); assay type: physicochemical
[2] = based on literature review; cited from earlier work
[3] = for Energy Content / Pump Octane (R + M)/2: 10% blend in gasoline; for Pump Octane (R + M)/2: RBOB with Pump Octane 80.85 and RVP 7.37; for Reid Vapor Pressure: measured with 9.5% volumetric blend in RBOB
[4] = Physical properties of alcohol fuels and gasoline; assay type: physicochemical
[5] = Fuel properties of the neat fuel; settings: for Pump Octane (R + M)/2: extrapolated from tests on blended fuels (blending octanes)
[6] = Enzyme assays of overexpressed ADH6 and ADH7 with crude extracts; assay type: biochemical; settings: NADPH dependent
Experimental: Yeast ADH6 and ADH7 have been reported as broad substrate specificity alcohol dehydrogenases. These enzymes were therefore overexpressed in S. cerevisiae under the control of TEF promoter and enzyme assays were carried out with crude extracts. Both ADH6 and ADH7 were active on 2-methylbutanal and were NADPH dependent reductases.

[7] = Aldehyde reductase assay of purified ADH6 on 2-methyl butyraldehyde; assay type: biochemical
Experimental: Enzyme assays for aldehyde reductase activity were carried out in 100 mM citrate phosphate buffer pH6.2, 0.5 mM NADPH and 0.05 to 20 mM substrate (acetaldehyde or 2-methylbutanal). The reaction was monitored for 5 minutes at 340 nm for oxidation of NADPH to NADP+.

Molecule	activity on 2-methylbutanal [6]	Fuel Solubility in Water [2]	Water Solubility in Fuel [2]	Energy Content [3]	Pump Octane (R + M)/2 [3]	Reid Vapor Pressure [3]	Boiling Point, max [4]	Flash Point, min [4]	Freezing Point, max [4]	Energy Content [5]	Reid Vapor Pressure [5]	Pump Octane (R + M)/2 [5]	also measured
CCC(C)COCC(C)CC (centres unmarked) [2MBO-ether, 2-methyl-1-(2-methylbutoxy)butane]	–	–	–	–	–	–	–	–	–	–	–	–	Flash [1]: 118 ° F.; Solubility in Water [1]: <500 ppm
CCCCCCCCCCCCCCCC [Hexadecane, reference compound]	–	–	–	–	–	–	–	–	–	–	–	–	wear scar diameter [1]: 534 µm
CC(C)CCO [3-MBO, 3-methyl-1-butanol]	–	2 wt %	9 wt %	113,824 BTU/gal	82.0	~7^B psi	130 °C	43 °C	−117 °C	112,240 BTU/gal	2.3 psi	101.0	–
CCC(C)CO (centres unmarked) [2-MBO, 2-methyl-1-butanol]	–	3 wt %	9 wt %	113,963 BTU/gal	83.0	~7^B psi	130 °C	43 °C	−70 °C	113,627 BTU/gal	2.3 psi	102.0	–

The next lines start with results.

activity on 2-methylbutanal [6]	Molecule	Fuel Solubility in Water [2]	Water Solubility in Fuel [2]	Energy Content [3]	Pump Octane (R + M)/2 [3]	Reid Vapor Pressure [3]	Boiling Point, max [4]	Flash Point, min [4]	Freezing Point, max [4]	Energy Content [5]	Reid Vapor Pressure [5]	Pump Octane (R + M)/2 [5]	also measured
active	ADH7: Saccharomyces cerevisiae NADPH-dependent alcohol dehydrogenase ADH7, SEQ ID NO: 72 (protein, listed as Saccharomyces cerevisiae) MLYPEKFQGIGISNAKDWKHPKLVSFDPKPFGDHDVDVEIEACGICGSDFHIAVGNWGPVPENQILGHEIIGRVVKVGSKCHTGVKIGDRVGVGAQALACFECERCKSDNEQYCTNDHVLTMWTPYKDGYISQGGFASHVRLHEHFAIQIPENIPSPLAAPLLCGGITVFSPLLRNGCGPGKRVGIVGIGGIGHMGILLAKAMGAEVYAFSRGHSKREDSMKLGADHYIAMLEDKGWTEQYSNALDLLVVCSSSLSKVNFDSIVKIMKIGGSIVSIAAPEVNEKLVLKPLGLMGVSISSSAIGSRKEIEQLLKLVSEKNVKIWVEKLPISEEGVSHAFTRMESGDVKYRFTLVDYDKKFHK	–	–	–	–	–	–	–	–	–	–	–	–
active	ADH6: Saccharomyces cerevisiae alcohol dehydrogenase ADH6, SEQ ID NO: 66 (protein, listed as Saccharomyces cerevisiae) MSYPEKFEGIAIQSHEDWKNPKKTKYDPKPFYDHDIDIKIEACGVCGSDIHCAAGHWGNMKMPLVVGHEIVGKVVKLGPKSNSGLKVGQRVGVGAQVFSCLECDRCKNDNEPYCTKFVTTYSQPYEDGYVSQGGYANYVRVHEHFVVPIPENIPSHLAAPLLCGGLTVYSPLVRNGCGPGKKVGIVGLGGIGSMGTLISKAMGAETYVISRSSRKREDAMKMGADHYIATLEEGDWGEKYFDTFDLIVVCASSLTDIDFNIMPKAMKVGGRIVSISIPEQHEMLSLKPYGLKAVSISYSALGSIKELNQLLKLVSEKDIKIWVETLPVGEAGVHEAFERMEKGDVRYRFTLVGYDKEFSD	–	–	–	–	–	–	–	–	–	–	–	Km ([7]; purified His-tagged enzyme, pH6.2, 0.5 mM NADPH): 360 µM; Vmax (cofactor oxidation rate) for 2-methyl butyraldehyde, fold higher than acetaldehyde ([7]; purified enzyme): 1.3 fold

Reference: patent US8114641B2, “Methylbutanol as an advanced biofuel” (Synthetic Genomics, Inc., priority 2007, dated 2012)
